Experiments:
THP-1 [1] = assay: Anti-foam cell formation activity in human THP1 cells assessed as inhibition of esterified cholesterol accumulation after 24 hrs in presence of Japanese white rabbit high-cholesterol serum; type: functional, cell-based; details: THP-1, 24 h
[2] = molecular target: T1, Acyl-CoA:cholesterol acyltransferase (Oryctolagus cuniculus, UniProt Q95214); assay: Inhibition of ACAT in Japanese White rabbit liver microsomes; design: species or system Microsome
T1 sequence (Q95214 whole entry): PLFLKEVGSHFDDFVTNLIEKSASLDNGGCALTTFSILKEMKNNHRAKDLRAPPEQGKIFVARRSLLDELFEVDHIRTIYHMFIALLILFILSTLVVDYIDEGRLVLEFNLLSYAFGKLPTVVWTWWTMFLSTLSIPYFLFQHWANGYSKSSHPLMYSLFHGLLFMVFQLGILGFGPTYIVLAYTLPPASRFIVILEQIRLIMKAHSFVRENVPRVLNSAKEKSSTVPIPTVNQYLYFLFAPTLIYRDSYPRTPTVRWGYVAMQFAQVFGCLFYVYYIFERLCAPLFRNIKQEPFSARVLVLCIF

[3] = Cmax in Sprague-Dawley rat at 10 mg/kg, po; type: ADME, organism-based; design: dose 10 mg/kg, route oral; details: in vivo
[4] = Tmax in Sprague-Dawley rat at 10 mg/kg, po; type: ADME, organism-based; design: dose 10 mg/kg, route oral; details: in vivo
[5] = Half life in Sprague-Dawley rat at 10 mg/kg, po; type: ADME, organism-based; design: dose 10 mg/kg, route oral; details: in vivo
[6] = AUC (0 to 24 hrs) in Sprague-Dawley rat at 10 mg/kg, po; type: ADME, organism-based; design: time < 24 hr, dose 10 mg/kg, route oral; details: plasma
[7] = Protein binding in rat plasma assessed as total and protein free fraction concentration at 10 ug/ML after 150 mins by ultracentrifugation method; type: ADME, cell-free; details: read-out: PPB (converted)
THP-1 [8] = assay: Anti-foam cell formation activity in human THP1 cells assessed as inhibition of esterified cholesterol accumulation after 24 hrs in presence of albumin; type: functional
Mus musculus = assay: Inhibition of hepatic cholesterol secretion in ICR mouse at 10 mg/kg, po after 3 hrs by enzymatic method; type: functional

IC50 (THP-1 [1]) | IC50 [2] | Structure (SMILES) | further results
0.29 µM | – | CCCCCCCCN1CCc2c(C)cc(C)c(NC(=O)C(C)(C)C)c21 | –
1.1 µM | 0.22 µM | CCCCN1CCc2c(C)cc(C)c(NC(=O)C(C)(C)C)c21 | –
0.98 µM | 0.91 µM | CCCCCCCCCCN1CCc2c(C)c(CC(=O)O)c(C)c(NC(=O)C(C)(C)C)c21 | –
1.6 µM | 0.27 µM | COCCN1CCc2c(C)c(NS(C)(=O)=O)c(C)c(NC(=O)C(C)(C)C)c21 | –
0.29 µM | 0.13 µM | CCCN1CCCc2c(C)c(NS(C)(=O)=O)c(C)c(NC(=O)C(C)(C)C)c21 | –
– | – | CCN1CCc2c(C)c(NS(C)(=O)=O)c(C)c(NC(=O)C(C)(C)C)c21 | Cmax [3]: 2900 ng/mL; Tmax [4]: 0.5 h; half-life [5]: 2.59 h; AUC(0-t) at 24 h [6]: 10800 ng·h/mL
7.5 µM | 8.8 µM | Cc1c2c(c(NC(=O)C(C)(C)C)c(C)c1NS(C)(=O)=O)N(C)CC2 | –
0.85 µM | 0.96 µM | CCCCCCCCCCCN1CCc2c(C)c(CC(=O)O)c(C)c(NC(=O)C(C)(C)C)c21 | –
0.82 µM | 0.31 µM | CCOCCN1CCc2c(C)c(NS(C)(=O)=O)c(C)c(NC(=O)C(C)(C)C)c21 | –
0.045 µM | 0.053 µM | CCCCN1CCc2c(C)c(NS(C)(=O)=O)c(C)c(NC(=O)C(C)(C)CC)c21 | –
2 µM | 2.3 µM | CCCCCCCCN1CCc2c(C)c(CC(=O)O)c(C)c(NC(=O)C(C)(C)C)c21 | –
– | – | CCCCCCCCN1CCc2c(C)c(CC(=O)O)c(C)c(NC(=O)C(C)(C)C)c21 [PACTIMIBE] | fraction unbound at […], 10 ug/mL [7]: 0.021; fold change (FC) (THP-1 [8]): 10; inhibition in vivo at 10 mg/kg (Mus musculus): 28%; Cmax [3]: 800 ng/mL; Tmax [4]: 0.67 h; half-life [5]: 7.37 h; AUC(0-t) at 24 h [6]: 2800 ng·h/mL
